According to US20210047278A1, “E3 UBIQUITIN LIGASE AGONISTS, PHARMACEUTICAL COMPOSITIONS INCLUDING THE E3 UBIQUITIN LIGASE AGONISTS, RELATED METHODS OF USE” (FRED HUTCHINSON CANCER RESEARCH CENTER, priority 2018, published 2021):
Like-named read-outs stand apart in the source and are kept apart here.

Assays:
Assay type in all cases: binding
FBW7^ARG+pCycE = target: T1, FBW7^ARG+pCycE (Homo sapiens, UniProt Q969H0, R505L); test: FBW7^ARG-cyclin E agonist ALPHAscreen (primary PRUN, confirmation CRUN1, dose-response DRUN); details: for EC50 / Emax: DRUN dose-response; for Emax: relative to WT-FBW7+pCycE, read-out: FBW7 ACT Averaged Max % Response
T1 construct: GST (TEV site and flexible linker) (N, cleaved yes); made in house; host or cells: SF9 insect cells (baculovirus)
T1 sequence (Q969H0 64-707 R505L): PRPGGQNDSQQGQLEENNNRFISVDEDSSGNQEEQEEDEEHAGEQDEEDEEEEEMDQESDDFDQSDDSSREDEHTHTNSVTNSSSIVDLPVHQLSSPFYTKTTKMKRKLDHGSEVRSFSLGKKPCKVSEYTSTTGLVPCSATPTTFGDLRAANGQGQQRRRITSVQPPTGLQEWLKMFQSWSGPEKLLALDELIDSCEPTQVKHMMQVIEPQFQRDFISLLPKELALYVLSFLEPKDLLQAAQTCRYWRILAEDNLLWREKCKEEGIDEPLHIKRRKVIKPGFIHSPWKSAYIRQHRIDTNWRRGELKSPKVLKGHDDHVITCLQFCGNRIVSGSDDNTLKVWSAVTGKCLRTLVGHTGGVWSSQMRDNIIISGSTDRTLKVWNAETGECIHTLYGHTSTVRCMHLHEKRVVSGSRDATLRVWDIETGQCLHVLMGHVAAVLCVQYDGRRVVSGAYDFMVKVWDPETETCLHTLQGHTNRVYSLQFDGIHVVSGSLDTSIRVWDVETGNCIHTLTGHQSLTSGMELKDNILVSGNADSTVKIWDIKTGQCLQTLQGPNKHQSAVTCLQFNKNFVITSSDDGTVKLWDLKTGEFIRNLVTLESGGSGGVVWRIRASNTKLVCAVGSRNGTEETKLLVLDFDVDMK
T1 sequence (P63208 2-163 partner): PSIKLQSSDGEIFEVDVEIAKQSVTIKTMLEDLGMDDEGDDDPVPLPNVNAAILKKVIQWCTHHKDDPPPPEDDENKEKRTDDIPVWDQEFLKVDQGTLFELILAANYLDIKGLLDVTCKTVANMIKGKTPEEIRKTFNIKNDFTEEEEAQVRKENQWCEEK
Summary of the method: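 Compounds tested once at 26.1 μM (primary; confirmation in triplicate) or in a triplicate 10-point 3-fold dilution up to ~87 μM (dose-response). Bridging of 25 nM mutant FBW7 R505L to 25 nM biotinylated phosphorylated cyclin E peptide detected by Ni-acceptor/streptavidin-donor ALPHA signal, normalized to WT-FBW7+pCycE.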

FBW7^ARG (RLFBW7) alone = target: T2, FBW7^ARG (RLFBW7) alone (Homo sapiens, UniProt Q969H0, R505L); test: Counterscreen 1 ALPHAscreen with FBW7^ARG alone (CSRUN1/DCSRUN1); details: dose-response counterscreen; for Emax: read-out: RLFBW7 ACT DCSRUN1 Averaged Max % Response
T2 construct: GST (TEV site and flexible linker) (N, cleaved yes); made in house; host or cells: SF9 insect cells (baculovirus)
T2 sequence (Q969H0 64-707 R505L): as the sequence (Q969H0 64-707 R505L) above
T2 sequence (P63208 2-163 partner): as the sequence (P63208 2-163 partner) above
Summary of the method: (§1)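 Dose-response in triplicate, 10 points in 3-fold steps with a top concentration near 87 μM. Each counterscreen lacks one partner (FBW7^ARG alone or pCycE alone), giving signal not due to the binding pair. Activity is % activation versus WT-FBW7+pCycE; positive threshold 10%.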

pCycE alone = test: Counterscreen 2 ALPHAscreen with cyclin E phosphopeptide alone (CSRUN2/DCSRUN2); details: for CyCEP ACT DCSRUN2 Averaged Max % Response: activation relative to WT-FBW7+pCycE, averaged maximum; for EC50: dose-response, triplicate, 10 point 3-fold dilutional series, read-out: CyCEP ACT DCSRUN2 Final EC50
Summary of the method: as §1

[1] = raw curve fit, read-out: FBW7 ACT EC50 Curve Fit Raw, Molar
[2] = triplicate, 10 point 3-fold dilution, max approx. 87 μM, read-out: FBW7 ACT Final EC50, Molar
[3] = confirmation assay, triplicate, single concentration 26.1 μM, read-out: FBW7 ACT CRUN1 Avg % Response and Stdev
[4] = primary screen, 1536-well, 26.1 μM, FBW7^ARG + pCycE degron peptide, high control wt-FBW7+pCycE, read-out: FBW7 ACT PRUN % Response
[5] = raw curve fit, read-out: RLFBW7 ACT DCSRUN1 EC50 Curve Fit Raw
[6] = read-out: RLFBW7 ACT DCSRUN1 Final EC50

Row | SMILES | EC50 (FBW7^ARG+pCycE; [1]) | Emax (FBW7^ARG+pCycE) | EC50 (FBW7^ARG+pCycE; [2]) | activation at 26.1 µM (FBW7^ARG+pCycE; [3]) | activation at 26.1 µM (FBW7^ARG+pCycE; [4]) | EC50 (FBW7^ARG (RLFBW7) alone; [5]) | Emax (FBW7^ARG (RLFBW7) alone) | EC50 (FBW7^ARG (RLFBW7) alone; [6]) | CyCEP ACT DCSRUN2 Averaged Max % Response (pCycE alone) | EC50 (pCycE alone)
1 | COc1cccc(C=O)c1OC(=O)c1cccc(Cl)c1 [SR-01000242625-1] | 26.7 µM | 33.6% | > 65.3 µM | 9.26 ± 0.67% | 11.9% | 0.0369 µM | 1.05% | > 65.3 µM | 0.61% | > 65.3 µM
2 | CN(C)CC[S+]([O-])c1cc(-c2cn[nH]c2)ccc1NC(=O)[C@@H]1Cc2cc(F)ccc2CN1.O=C(O)C(F)(F)F (stereo partly drawn) [SR-00000005398-1] | 9.2 µM | 12.9% | > 65.3 µM | 2.28 ± 0.37% | 1.91% | 0.0925 µM | 0.77% | > 65.3 µM | 0.21% | > 65.3 µM
3 | CCOC(=O)C1CCN(C(=O)Nc2ccc(NC(=O)C3CCN(C(=O)OCC)CC3)cc2)CC1 [SR-01000451467-1] | 9.6 µM | 15.5% | > 45.3 µM | 5.81 ± 0.4% | 6.08% | 0.0074 µM | 1.76% | > 45.3 µM | 2.82% | > 45.3 µM
